From patent US11484591B2, “Chemoprevention using controlled-release formulations of anti-interleukin 6 agents, synthetic vitamin A analogues or metabolites, and estradiol metabolites” (OHIO STATE INNOVATION FOUNDATION, priority 2016, dated 2022)
≈ marks a conversion by molar mass, not a printed value. Entries after “also recorded” stand apart in the source; their conditions may differ.

Key:
[1] = test system: IL-6; test: IL-6 release from OSCC cells (ELISA); type: cell-based, human; conditions: 5 μM, fresh treatment q.d., base medium, 48 h
Method: Conditioned media from 24-hour sera-deprived JSCC-1, JSCC-2 and JSCC3 cells were analyzed using the Proteome Profiler Human Cytokine XL Array (R&D Systems, Minneapolis, Minn.), with image capture and analyses via the Li-Cor Odyssey imager and Image Studio software (Li-Cor Biosciences, Lincoln, Nebr.). Sera-free conditioned media for IL-6, VEGF, TGF-α and EGF were analyzed by ELISAs (R&D Systems, Minneapolis, Minn.), with data expressed as pg/10^6 cells.
) 0.01% DMSO (vehicle control), 2) 5 μM 4-HPR, 3) 2.5 μM 2-ME, 4) 1 μg/ml tocilizumab (TOC, […]) 5) 5 μM 4-HPR+2.5 μM 2-ME, 6) 5 μM 4-HPR+1 μg/ml TOC, 7) 2.5 μM 2-ME+1 μg/ml TOC, 8) 5 μM 4-HPR+2.5 μM 2-ME+1 μg/ml TOC. Following treatment, conditioned media were collected (ELISAs for IL-6, sIL-6R, TGF-α, VEGF, EGF, R&D Systems, Minneapolis, Minn.) and nuclear and cytosolic lysates (Nuclear Extract Kit, Active Motif, Carlsbad, Calif.) isolated for EMSAs (STAT3, NFκB p50 and p65, TransAM Transcription Factor ELISAs, Active Motif) and cytosolic and nuclear extracts for Westerns (NE-PER Nuclear and Cytoplasmic Extraction Reagents, ThermoFisher Scientific, Waltham Mass.). […]

[2] = test system: JSCC1 cells; test: Tumorsphere formation and retention of proliferative capacity; type: cell-based, human
Method: JSCC1 cells were seeded at density of 5×10^5 cells in Advanced DMEM+5% FBS+1× GlutaMAX Supplement in Ultra-Low Attachment surface T-25 flasks with DMSO control (0.05%) and 5 μM 4-HPR treatment. Cell suspension cultures were treated for 3 days with fresh treatment every 24 h. While control cultures formed tumorspheres by 24 h, 4-HPR treated cellular interactions were limited to small cell aggregates. (Image scale at 100×.)
Following the treatment described in FIG. 4A above, the JSCC1 control and 4-HPR treated cells were returned to standard tissue culture flasks for seven days in 4-HPR free complete medium (Advanced DMEM+5% FBS+1× GlutaMAX Supplement). […] (Image scale 100×.)
5×10^5 JSCC1 cells (tumorsphere-formation competent unlike JSCC2 and JSCC3 cells) were plated in complete medium with either vehicle control (0.01% DMSO) or 5 μM 4-HPR in Corning Ultra-Low attachment tissue culture flasks (Sigma-Aldrich, St. Louis, Mo.) Suspension cultures received fresh medium and treatment q d for 7 days, with daily images capture via the Nikon DS-Ri+NIS Element. After 7 days, cells and medium were harvested, centrifuged, and cells replated in standard culture flasks containing complete medium. Images were obtained daily and cells harvested after 7 days in culture. Cell number (hemocytometer counts) and viability (trypan blue exclusion) were obtained.

[3] = Fenretinide solubility; type: physicochemical
[4] = test system: apoptosis; conditions: reference 21; cited from earlier work
[5] = target: ATP binding sites of FAK (Homo sapiens, UniProt Q05397); conditions: cited from earlier work
Sequence of ATP binding sites of FAK (Q05397 whole entry): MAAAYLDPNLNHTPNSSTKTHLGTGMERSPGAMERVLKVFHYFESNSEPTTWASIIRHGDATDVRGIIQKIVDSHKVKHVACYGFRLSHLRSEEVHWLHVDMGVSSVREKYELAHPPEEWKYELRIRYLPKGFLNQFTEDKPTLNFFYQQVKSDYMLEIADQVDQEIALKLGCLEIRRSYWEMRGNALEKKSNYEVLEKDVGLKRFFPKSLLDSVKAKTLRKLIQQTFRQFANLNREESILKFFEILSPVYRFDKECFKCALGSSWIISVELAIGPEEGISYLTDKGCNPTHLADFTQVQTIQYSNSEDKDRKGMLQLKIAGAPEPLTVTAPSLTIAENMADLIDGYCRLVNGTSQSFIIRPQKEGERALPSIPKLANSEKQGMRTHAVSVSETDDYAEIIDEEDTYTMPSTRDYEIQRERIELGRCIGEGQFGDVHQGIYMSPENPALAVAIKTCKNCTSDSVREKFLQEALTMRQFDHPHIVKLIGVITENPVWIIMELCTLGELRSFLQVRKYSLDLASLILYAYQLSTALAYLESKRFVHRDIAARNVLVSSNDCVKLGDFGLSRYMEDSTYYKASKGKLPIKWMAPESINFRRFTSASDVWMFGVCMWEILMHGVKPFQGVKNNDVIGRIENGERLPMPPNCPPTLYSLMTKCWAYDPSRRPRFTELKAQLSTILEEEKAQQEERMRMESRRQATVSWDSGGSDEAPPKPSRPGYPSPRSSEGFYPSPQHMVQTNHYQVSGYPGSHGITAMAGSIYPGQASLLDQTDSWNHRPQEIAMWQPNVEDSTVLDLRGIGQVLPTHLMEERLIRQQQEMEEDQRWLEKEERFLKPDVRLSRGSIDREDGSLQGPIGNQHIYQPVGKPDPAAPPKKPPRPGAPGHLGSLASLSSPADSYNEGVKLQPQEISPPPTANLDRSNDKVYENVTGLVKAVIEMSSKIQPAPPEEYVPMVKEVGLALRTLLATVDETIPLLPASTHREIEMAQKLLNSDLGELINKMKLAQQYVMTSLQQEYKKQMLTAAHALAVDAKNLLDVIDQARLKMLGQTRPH

[6] = target: ATP binding sites of Pyk2 (Homo sapiens, UniProt Q14289); conditions: cited from earlier work
Sequence of ATP binding sites of Pyk2 (Q14289 whole entry): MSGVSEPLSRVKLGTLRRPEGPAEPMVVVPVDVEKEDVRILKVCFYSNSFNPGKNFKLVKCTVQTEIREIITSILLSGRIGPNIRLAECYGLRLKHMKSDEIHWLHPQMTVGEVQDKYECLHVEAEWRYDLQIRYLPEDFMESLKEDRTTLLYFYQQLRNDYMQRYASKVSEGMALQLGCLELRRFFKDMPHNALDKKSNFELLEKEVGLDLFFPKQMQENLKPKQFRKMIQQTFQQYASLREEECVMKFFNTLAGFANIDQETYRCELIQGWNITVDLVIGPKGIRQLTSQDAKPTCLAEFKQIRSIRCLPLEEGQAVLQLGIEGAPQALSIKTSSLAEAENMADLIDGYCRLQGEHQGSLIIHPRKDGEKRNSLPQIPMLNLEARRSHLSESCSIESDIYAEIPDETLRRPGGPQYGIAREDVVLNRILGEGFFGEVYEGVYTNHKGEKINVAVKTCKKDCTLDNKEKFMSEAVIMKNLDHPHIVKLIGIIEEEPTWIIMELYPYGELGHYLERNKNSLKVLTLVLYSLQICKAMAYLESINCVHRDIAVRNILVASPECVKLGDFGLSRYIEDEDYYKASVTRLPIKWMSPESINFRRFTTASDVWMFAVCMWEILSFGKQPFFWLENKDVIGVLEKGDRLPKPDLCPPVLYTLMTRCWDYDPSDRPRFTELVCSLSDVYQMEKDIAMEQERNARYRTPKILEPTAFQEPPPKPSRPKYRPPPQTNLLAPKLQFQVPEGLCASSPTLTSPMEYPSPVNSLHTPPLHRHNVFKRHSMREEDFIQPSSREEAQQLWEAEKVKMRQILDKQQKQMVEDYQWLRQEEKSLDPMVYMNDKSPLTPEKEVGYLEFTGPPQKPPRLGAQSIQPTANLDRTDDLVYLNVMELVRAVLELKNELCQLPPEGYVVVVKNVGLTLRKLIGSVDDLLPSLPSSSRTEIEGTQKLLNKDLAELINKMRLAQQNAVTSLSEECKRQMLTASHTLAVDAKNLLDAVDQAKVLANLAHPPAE

[7] = test system: OSCC migration and invasion; conditions: cited from earlier work
[8] = JSCC1 cells pretreated with 5 μM, 7 days in 4-HPR free complete medium

water solubility [3]: below HPLC detection limit
solubility ([3]; PBS+0.084% Tween 80, same as in bovine serum): 21 µg/mL (≈ 53.6 µM)
SMILES: CC1=C(/C=C/C(C)=C/C=C/C(C)=C/C(=O)Nc2ccc(O)cc2)C(C)(C)CCC1 [4-HPR, 4-hydroxy(phenyl)retinamide]
increase of IL-6 release ([1]; JSCC1 cells): ~50%
increase of IL-6 release ([1]; JSCC2 cells): ~20%
reattachment and viability after re-plating in standard flasks [2, 8]: failed to reattach; also recorded: failed to reattach and were uniformly non-vital
trypan blue uptake after re-plating [2, 8]: 100%
tumorsphere formation ([2]; JSCC1 cells, 5 μM, low attachment flasks): inhibits tumorsphere formation
anoikis in tumorsphere-competent cells ([2]; discussion): induced anoikis
apoptosis-inducing concentration [4]: 10 µM
binding to ATP binding site [5]: binds with high affinity
binding to ATP binding site [6]: binds with high affinity
OSCC migration and invasion [7]: significantly inhibits
